Bounds are passed on as bounds.

The target in the experiment is T1, CK1α (Homo sapiens, UniProt P48729).
T1 construct: HEK293 clonal lines with CRISPR KI HiBiT tag on CSNK1A1
T1 sequence (P48729 whole entry): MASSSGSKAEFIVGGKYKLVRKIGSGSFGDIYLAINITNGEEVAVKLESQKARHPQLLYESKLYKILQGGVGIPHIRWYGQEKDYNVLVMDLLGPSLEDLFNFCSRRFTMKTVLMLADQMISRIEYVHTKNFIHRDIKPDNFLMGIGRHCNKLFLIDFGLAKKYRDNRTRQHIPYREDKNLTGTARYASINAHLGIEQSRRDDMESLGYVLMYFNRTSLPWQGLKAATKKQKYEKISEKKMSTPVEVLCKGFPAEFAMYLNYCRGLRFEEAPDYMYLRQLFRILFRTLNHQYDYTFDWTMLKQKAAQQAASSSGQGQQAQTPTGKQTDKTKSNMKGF
T1 sequence (Q96SW2 whole entry, further chain): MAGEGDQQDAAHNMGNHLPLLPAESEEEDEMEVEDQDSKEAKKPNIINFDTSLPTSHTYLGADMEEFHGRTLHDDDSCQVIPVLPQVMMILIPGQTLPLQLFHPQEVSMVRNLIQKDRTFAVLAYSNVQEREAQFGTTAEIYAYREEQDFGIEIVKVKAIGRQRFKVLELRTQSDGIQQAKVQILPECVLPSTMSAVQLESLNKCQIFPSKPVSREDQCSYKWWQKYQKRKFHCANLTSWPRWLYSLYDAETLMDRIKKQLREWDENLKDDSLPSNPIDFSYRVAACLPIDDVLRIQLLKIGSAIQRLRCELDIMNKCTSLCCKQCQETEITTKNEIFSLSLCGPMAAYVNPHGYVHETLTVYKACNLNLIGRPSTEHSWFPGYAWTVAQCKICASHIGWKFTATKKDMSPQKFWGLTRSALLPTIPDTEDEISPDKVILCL
T1 sequence (Q16531 2-1140 partner limits assumed): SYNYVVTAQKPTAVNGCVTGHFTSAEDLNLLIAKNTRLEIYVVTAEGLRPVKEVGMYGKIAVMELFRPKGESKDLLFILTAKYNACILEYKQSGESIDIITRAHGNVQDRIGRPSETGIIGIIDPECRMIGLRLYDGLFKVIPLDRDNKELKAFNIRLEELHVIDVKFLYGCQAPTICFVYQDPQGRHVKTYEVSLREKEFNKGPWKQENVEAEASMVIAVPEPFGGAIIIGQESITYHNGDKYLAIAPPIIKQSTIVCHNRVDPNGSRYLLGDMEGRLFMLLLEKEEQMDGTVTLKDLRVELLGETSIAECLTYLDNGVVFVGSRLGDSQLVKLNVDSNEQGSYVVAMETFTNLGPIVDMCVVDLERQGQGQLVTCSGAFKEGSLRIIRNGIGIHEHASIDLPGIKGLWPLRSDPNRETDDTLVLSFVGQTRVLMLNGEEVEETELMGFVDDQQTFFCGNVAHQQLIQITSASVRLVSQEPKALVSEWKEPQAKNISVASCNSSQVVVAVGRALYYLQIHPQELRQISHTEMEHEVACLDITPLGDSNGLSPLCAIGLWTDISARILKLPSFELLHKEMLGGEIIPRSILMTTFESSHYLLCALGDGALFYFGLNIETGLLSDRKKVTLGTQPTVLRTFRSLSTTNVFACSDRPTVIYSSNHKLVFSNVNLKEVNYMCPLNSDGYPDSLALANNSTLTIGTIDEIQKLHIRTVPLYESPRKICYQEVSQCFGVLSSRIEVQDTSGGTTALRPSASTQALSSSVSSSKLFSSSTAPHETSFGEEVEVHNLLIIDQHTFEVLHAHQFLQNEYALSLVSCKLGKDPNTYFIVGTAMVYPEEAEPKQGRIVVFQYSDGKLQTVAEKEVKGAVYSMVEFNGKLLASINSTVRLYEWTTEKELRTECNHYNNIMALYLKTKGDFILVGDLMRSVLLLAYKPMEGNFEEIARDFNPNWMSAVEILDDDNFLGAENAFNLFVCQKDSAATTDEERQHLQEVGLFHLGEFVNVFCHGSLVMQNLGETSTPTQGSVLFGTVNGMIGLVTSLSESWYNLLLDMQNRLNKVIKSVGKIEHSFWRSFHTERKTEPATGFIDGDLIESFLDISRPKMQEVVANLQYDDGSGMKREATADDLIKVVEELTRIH
In words: CK1α NanoBit Assay (HiBiT-tagged CSNK1A1, HEK293 clonal lines). Type of experiment: cell-based. The conditions noted are these: HEK293 HiBiT-CSNK1A1/LgBiT cells, 24 h incubation. How it is done:
HEK293 clonal lines with CRISPR KI HiBiT tag on CSNK1A1 and stably expressing LgBiT protein were obtained from Promega (Madison, WI). […] Cells were incubated at 37° C., 5% CO2 for 24 hours and then signal was read on a Pherastar FSX using “LUM plus” optic module.
Data analysis was performed in Scinamic (Scinamic, Cambridge, MA). Luminescence response (R) was calculated by the formula: response=100*(S−N)/(P−N) where S is the signal of the well, N and P the mean negative and positive control values respectively of the same plate.
DC50 data are reported in Table 2 for compounds in Table 1. In Table 2 below, According to the code, A represents a DC50 value of ≤0.1 μM, B represents a DC50 value>0.1 μM and ≤1 μM, C represents an DC50 value>1 μM.
(With HiBiT, luminescence reflects the tagged protein that the partner subunit can reach.)
For `CC(C)(C)c1ccc2c(c1)CCN(C(=O)Nc1ccc3c(c1)CN(C1CCC(=O)NC1=O)C3=O)C2` (stereo not drawn) [Compound 194], the DC50 is less than 0.1 µM.
Take `O=C1CCC(N2Cc3cc(NC(=O)N4CCC(c5ncccn5)C4)ccc3C2=O)C(=O)N1` (stereo not drawn) [Compound 229]: the DC50 is more than 1 µM.
`C[C@@H]1C[C@H](C)c2ccccc2N1C(=O)Nc1ccc2c(c1)CN(C1CCC(=O)NC1=O)C2=O` (stereo partly drawn) [Compound 128] showed a DC50 of 0.1 to 1 µM.
For `O=C1CCC(N2Cc3cc(NC(=O)N4CCC(c5ccccn5)C4)ccc3C2=O)C(=O)N1` (stereo not drawn) [Compound 263] the value was 0.1 to 1 µM; for `O=C1CCC(N2Cc3cc(NC(=O)N4CCCc5ncccc54)ccc3C2=O)C(=O)N1` (stereo not drawn) [Compound 145], more than 1 µM.
The same measure for `O=C1CCC(N2Cc3cc(NC(=O)N4CCc5cnccc5C4)ccc3C2=O)C(=O)N1` (stereo not drawn) [Compound 207]: more than 1 µM; for `O=C1CCC(N2Cc3cc(NC(=O)N4CCCC5CC54)ccc3C2=O)C(=O)N1` (stereo not drawn) [Compound 276]: 0.1 to 1 µM; for `O=C1CCC(N2Cc3cc(NC(=O)N4CCN(C56CC(C5)C6)CC4)ccc3C2=O)C(=O)N1` (stereo not drawn) [Compound 234]: more than 1 µM.
For `C[C@H]1c2ccccc2CN1C(=O)Nc1ccc2c(c1)CN(C1CCC(=O)NC1=O)C2=O` (stereo partly drawn) [Compound 167], the DC50 was less than 0.1 µM.
The same measure for `O=C1CCC(N2Cc3cc(NC(=O)N4Cc5cccc(F)c5C4)ccc3C2=O)C(=O)N1` (stereo not drawn) [Compound 202]: less than 0.1 µM; for `O=C1CCC(N2Cc3cc(NC(=O)N4CCc5ccc(F)cc5C4)ccc3C2=O)C(=O)N1` (stereo not drawn) [Compound 180]: less than 0.1 µM; for `O=C1CCC(N2Cc3cc(NC(=O)N4C[C@H]5CC4[C@H](c4ccccc4)C5)ccc3C2=O)C(=O)N1` (stereo partly drawn) [Compound 230]: 0.1 to 1 µM.
The same measure for `O=C1CCC(N2Cc3cc(NC(=O)N4C[C@H](c5ccccc5)[C@H]4CO)ccc3C2=O)C(=O)N1` (stereo partly drawn) [Compound 245]: 0.1 to 1 µM; for `CC1(C)CN(C(=O)Nc2ccc3c(c2)CN(C2CCC(=O)NC2=O)C3=O)Cc2ccccc21` (stereo not drawn) [Compound 200]: less than 0.1 µM.
The same measure for `CC(C)C1c2ccccc2CCN1C(=O)Nc1ccc2c(c1)CN(C1CCC(=O)NC1=O)C2=O` (stereo not drawn) [Compound 181]: less than 0.1 µM; for `O=C1CCC(N2Cc3cc(NC(=O)N4CCC(C(F)(F)F)c5ccccc54)ccc3C2=O)C(=O)N1` (stereo not drawn) [Compound 127]: less than 0.1 µM; for `O=C1CCC(N2Cc3cc(NC(=O)N4CCCc5cc(F)ccc54)ccc3C2=O)C(=O)N1` (stereo not drawn) [Compound 141]: less than 0.1 µM.
Turning to `Cc1cccc(C2(O)CN(C(=O)Nc3ccc4c(c3)CN(C3CCC(=O)NC3=O)C4=O)C2)c1` (stereo not drawn) [Compound 225], the DC50 is more than 1 µM.
`Cc1cc(C)c2c(n1)CN(C(=O)Nc1ccc3c(c1)CN(C1CCC(=O)NC1=O)C3=O)C2` (stereo not drawn) [Compound 118]: the DC50 was less than 0.1 µM.
The same measure for `O=C1CCC(N2Cc3cc(NC(=O)N4CCCc5cccnc54)ccc3C2=O)C(=O)N1` (stereo not drawn) [Compound 146]: 0.1 to 1 µM.
The same measure for `Cc1ccccc1N1CCN(C(=O)Nc2ccc3c(c2)CN(C2CCC(=O)NC2=O)C3=O)CC1` (stereo not drawn) [Compound 261]: less than 0.1 µM; for `CC(C)(C)C1Cc2ccccc2N(C(=O)Nc2ccc3c(c2)CN(C2CCC(=O)NC2=O)C3=O)C1` (stereo not drawn) [Compound 154]: less than 0.1 µM; for `Cn1nccc1C1CCCN(C(=O)Nc2ccc3c(c2)CN(C2CCC(=O)NC2=O)C3=O)C1` (stereo not drawn) [Compound 250]: more than 1 µM.
With `O=C1CCC(N2Cc3cc(NC(=O)N4CCc5cnccc54)ccc3C2=O)C(=O)N1` (stereo not drawn) [Compound 110, N-(2-(2,6-dioxopiperidin-3-yl)-1-oxoisoindolin-5-yl)-2,3-dihydro-1H-pyrrolo[3,2-c]pyridine-1-carboxamide], the DC50 lay within 0.1 to 1 µM.
For `O=C1CCC(N2Cc3cc(NC(=O)N4CCC(C5CC5)C4)ccc3C2=O)C(=O)N1` (stereo not drawn) [Compound 277] the value was less than 0.1 µM; for `O=C1CCC(N2Cc3cc(NC(=O)N4CCCc5c4cccc5C(F)(F)F)ccc3C2=O)C(=O)N1` (stereo not drawn) [Compound 160], 0.1 to 1 µM.
`O=C1CCC(N2Cc3cc(NC(=O)N4CCC(c5cnccn5)C4)ccc3C2=O)C(=O)N1` (stereo not drawn) [Compound 223] displayed a DC50 of more than 1 µM.
The same measure for `O=C1CCC(N2Cc3cc(NC(=O)N4CCN(c5ccccn5)CC4)ccc3C2=O)C(=O)N1` (stereo not drawn) [Compound 271]: 0.1 to 1 µM.
The molecule `O=C1CCC(N2Cc3cc(NC(=O)N4CC(c5ccc(Cl)cc5)C4)ccc3C2=O)C(=O)N1` (stereo not drawn) [Compound 231] came in with a DC50 of less than 0.1 µM.
As for `CC1(C)c2ccccc2CCN1C(=O)Nc1ccc2c(c1)CN(C1CCC(=O)NC1=O)C2=O` (stereo not drawn) [Compound 156], the DC50 is more than 1 µM.
With `O=C1CCC(N2Cc3cc(NC(=O)N4CCN(c5cnccn5)CC4)ccc3C2=O)C(=O)N1` (stereo not drawn) [Compound 254], the DC50 was more than 1 µM.
The same measure for `N#Cc1ccc(C2CN(C(=O)Nc3ccc4c(c3)CN(C3CCC(=O)NC3=O)C4=O)C2)cc1` (stereo not drawn) [Compound 244]: 0.1 to 1 µM; for `O=C1CCC(N2Cc3cc(NC(=O)N4c5ccccc5C[C@@H]4CO)ccc3C2=O)C(=O)N1` (stereo partly drawn) [Compound 125]: less than 0.1 µM.
The same measure for `O=C1CCC(N2Cc3cc(NC(=O)N4CCc5ccccc5C4C(F)(F)F)ccc3C2=O)C(=O)N1` (stereo not drawn) [Compound 130]: less than 0.1 µM; for `O=C1CCC(N2Cc3cc(NC(=O)N4CCC(c5ccccc5)C4)ccc3C2=O)C(=O)N1` (stereo not drawn) [Compound 260]: less than 0.1 µM; for `Cc1ccccc1C1CN(C(=O)Nc2ccc3c(c2)CN(C2CCC(=O)NC2=O)C3=O)C1` (stereo not drawn) [Compound 227]: less than 0.1 µM.
Molecule `CC(C)c1cccc2c1N(C(=O)Nc1ccc3c(c1)CN(C1CCC(=O)NC1=O)C3=O)CCC2` (stereo not drawn) [Compound 155] showed a DC50 of 0.1 to 1 µM.
The same measure for `O=C1CCC(N2Cc3cc(NC(=O)N4CCC5(CCC5)C4)ccc3C2=O)C(=O)N1` (stereo not drawn) [Compound 278]: less than 0.1 µM; for `CC1Cc2ccccc2N1C(=O)Nc1ccc2c(c1)CN(C1CCC(=O)NC1=O)C2=O` (stereo not drawn) [Compound 138]: less than 0.1 µM.
For `C[C@H]1c2ccccc2[C@H](C)N1C(=O)Nc1ccc2c(c1)CN(C1CCC(=O)NC1=O)C2=O` (stereo partly drawn) [Compound 172] the value was less than 0.1 µM; for `O=C1CCC(N2Cc3cc(NC(=O)N4Cc5ccc(Cl)cc5C4)ccc3C2=O)C(=O)N1` (stereo not drawn) [Compound 177], less than 0.1 µM; for `Cc1cccc2c1N(C(=O)Nc1ccc3c(c1)CN(C1CCC(=O)NC1=O)C3=O)CCC2` (stereo not drawn) [Compound 139], 0.1 to 1 µM.
The same measure for `CC1CN(c2ccccc2)CCN1C(=O)Nc1ccc2c(c1)CN(C1CCC(=O)NC1=O)C2=O` (stereo not drawn) [Compound 257]: 0.1 to 1 µM; for `O=C1CCC(N2Cc3cc(NC(=O)N4CCCCC4C4CC4)ccc3C2=O)C(=O)N1` (stereo not drawn) [Compound 232]: 0.1 to 1 µM; for `O=C1CCC(N2Cc3cc(NC(=O)N4CC(c5ccc(F)cc5)C4)ccc3C2=O)C(=O)N1` (stereo not drawn) [Compound 269]: less than 0.1 µM.
As to `O=C1CCC(N2Cc3cc(NC(=O)N4CC(c5cccc(Cl)c5)C4)ccc3C2=O)C(=O)N1` (stereo not drawn) [Compound 268], the DC50 was less than 0.1 µM.
For `O=C1CCC(N2Cc3cc(NC(=O)N4CCc5ccccc5C4c4ccccc4)ccc3C2=O)C(=O)N1` (stereo not drawn) [Compound 211] the value was less than 0.1 µM; for `O=C1CCC(N2Cc3cc(NC(=O)N4CCCc5cccc(Cl)c54)ccc3C2=O)C(=O)N1` (stereo not drawn) [Compound 158], 0.1 to 1 µM.
`O=C1CCC(N2Cc3cc(NC(=O)N4CC5CC5c5cc(Br)ccc54)ccc3C2=O)C(=O)N1` (stereo not drawn) [Compound 173]: the DC50 is less than 0.1 µM.
With `N#Cc1ccc2c(c1)CCCN2C(=O)Nc1ccc2c(c1)CN(C1CCC(=O)NC1=O)C2=O` (stereo not drawn) [Compound 150], the DC50 was in the range of 0.1 to 1 µM.
For `Cc1ccc2c(c1)CCCN2C(=O)Nc1ccc2c(c1)CN(C1CCC(=O)NC1=O)C2=O` (stereo not drawn) [Compound 140] the value was less than 0.1 µM; for `Cc1cccc2c1CCCN2C(=O)Nc1ccc2c(c1)CN(C1CCC(=O)NC1=O)C2=O` (stereo not drawn) [Compound 122], 0.1 to 1 µM.
Regarding `CC(C)[C@]12C[C@H]1CN(C(=O)Nc1ccc3c(c1)CN(C1CCC(=O)NC1=O)C3=O)C2` (stereo partly drawn) [Compound 235], the DC50 is less than 0.1 µM.
On to `Cc1ccc2c(c1)CN(C(=O)Nc1ccc3c(c1)CN(C1CCC(=O)NC1=O)C3=O)C2` (stereo not drawn) [Compound 175], for which the DC50 was less than 0.1 µM.
Consider `C[C@@H]1Cc2cc(F)ccc2N1C(=O)Nc1ccc2c(c1)CN(C1CCC(=O)NC1=O)C2=O` (stereo partly drawn) [Compound 363, (2R)—N-(2-(2,6-dioxopiperidin-3-yl)-1-oxoisoindolin-5-yl)-5-fluoro-2-methylindoline-1-carboxamide], for which the DC50 was less than 0.1 µM.
The same measure for `O=C1CCC(N2Cc3cc(NC(=O)N4CCCCC4c4ccccc4)ccc3C2=O)C(=O)N1` (stereo not drawn) [Compound 253]: less than 0.1 µM.
The same measure for `O=C1CCC(N2Cc3cc(NC(=O)N4CC(c5cccc(F)c5)C4)ccc3C2=O)C(=O)N1` (stereo not drawn) [Compound 238]: 0.1 to 1 µM.
For the molecule `CC1(c2ccccc2)CCCN(C(=O)Nc2ccc3c(c2)CN(C2CCC(=O)NC2=O)C3=O)C1` (stereo not drawn) [Compound 259], the DC50 is 0.1 to 1 µM.
The molecule `O=C1CCC(N2Cc3cc(NC(=O)N4CCCC5(CCC5)C4)ccc3C2=O)C(=O)N1` (stereo not drawn) [Compound 255] displayed a DC50 of less than 0.1 µM.
`CCC1(c2ccccc2)CN(C(=O)Nc2ccc3c(c2)CN(C2CCC(=O)NC2=O)C3=O)C1` (stereo not drawn) [Compound 252]: the DC50 was in the range of 0.1 to 1 µM.
The same measure for `N#Cc1cccc2c1CCN(C(=O)Nc1ccc3c(c1)CN(C1CCC(=O)NC1=O)C3=O)C2` (stereo not drawn) [Compound 176]: 0.1 to 1 µM; for `CC1CCCCN1C(=O)Nc1ccc2c(c1)CN(C1CCC(=O)NC1=O)C2=O` (stereo not drawn) [Compound 282]: 0.1 to 1 µM; for `O=C1CCC(N2Cc3cc(NC(=O)N4Cc5ccncc5C4)ccc3C2=O)C(=O)N1` (stereo not drawn) [Compound 144]: 0.1 to 1 µM.

Source of the values: US20250171420A1 (Monte Rosa Therapeutics, Inc., priority 2022, published 2025).
